Tests used:
Test in all cases: KINOMEscan (ScanMAX) kinase profiling
Type in all cases: binding
[1] = target: T1, panel of 468 kinases (Homo sapiens, UniProt Q7L7X3); conditions: TAOK1; 1 μM; read-out: % control
T1 construct: purchased KINOMEscan (ScanMAX) service
T1 sequence (Q7L7X3 1-1001): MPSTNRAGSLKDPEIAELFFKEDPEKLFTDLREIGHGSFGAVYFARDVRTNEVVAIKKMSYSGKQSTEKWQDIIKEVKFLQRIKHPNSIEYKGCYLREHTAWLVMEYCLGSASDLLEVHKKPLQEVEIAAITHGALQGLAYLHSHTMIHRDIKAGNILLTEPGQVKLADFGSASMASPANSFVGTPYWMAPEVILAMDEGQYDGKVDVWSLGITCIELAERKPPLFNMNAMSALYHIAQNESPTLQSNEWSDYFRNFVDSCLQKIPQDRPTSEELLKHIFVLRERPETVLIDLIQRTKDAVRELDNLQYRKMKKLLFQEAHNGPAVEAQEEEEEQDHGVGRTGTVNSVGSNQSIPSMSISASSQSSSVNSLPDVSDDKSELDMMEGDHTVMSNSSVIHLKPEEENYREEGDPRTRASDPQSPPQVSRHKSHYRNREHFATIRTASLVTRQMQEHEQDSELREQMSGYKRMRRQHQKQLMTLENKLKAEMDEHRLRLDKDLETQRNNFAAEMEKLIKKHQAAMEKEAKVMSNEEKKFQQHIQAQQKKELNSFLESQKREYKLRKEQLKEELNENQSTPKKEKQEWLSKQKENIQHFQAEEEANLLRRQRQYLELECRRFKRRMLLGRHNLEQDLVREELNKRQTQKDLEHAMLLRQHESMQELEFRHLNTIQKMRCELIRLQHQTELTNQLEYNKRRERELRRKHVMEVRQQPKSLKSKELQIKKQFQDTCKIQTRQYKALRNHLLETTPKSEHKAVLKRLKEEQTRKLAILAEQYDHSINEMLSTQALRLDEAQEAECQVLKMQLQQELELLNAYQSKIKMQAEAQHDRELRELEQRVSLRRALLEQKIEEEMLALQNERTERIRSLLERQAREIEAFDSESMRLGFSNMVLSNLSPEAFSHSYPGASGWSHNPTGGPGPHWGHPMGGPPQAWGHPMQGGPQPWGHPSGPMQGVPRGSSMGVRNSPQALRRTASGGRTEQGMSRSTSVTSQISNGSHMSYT

[2] = target: T2, panel of 468 kinases (Homo sapiens, UniProt P10721, T670I/V559D); conditions: KIT(V559D,T670I); 1 μM; read-out: % control
T2 construct: purchased KINOMEscan (ScanMAX) service
T2 sequence (P10721 26-976 V559D/T670I): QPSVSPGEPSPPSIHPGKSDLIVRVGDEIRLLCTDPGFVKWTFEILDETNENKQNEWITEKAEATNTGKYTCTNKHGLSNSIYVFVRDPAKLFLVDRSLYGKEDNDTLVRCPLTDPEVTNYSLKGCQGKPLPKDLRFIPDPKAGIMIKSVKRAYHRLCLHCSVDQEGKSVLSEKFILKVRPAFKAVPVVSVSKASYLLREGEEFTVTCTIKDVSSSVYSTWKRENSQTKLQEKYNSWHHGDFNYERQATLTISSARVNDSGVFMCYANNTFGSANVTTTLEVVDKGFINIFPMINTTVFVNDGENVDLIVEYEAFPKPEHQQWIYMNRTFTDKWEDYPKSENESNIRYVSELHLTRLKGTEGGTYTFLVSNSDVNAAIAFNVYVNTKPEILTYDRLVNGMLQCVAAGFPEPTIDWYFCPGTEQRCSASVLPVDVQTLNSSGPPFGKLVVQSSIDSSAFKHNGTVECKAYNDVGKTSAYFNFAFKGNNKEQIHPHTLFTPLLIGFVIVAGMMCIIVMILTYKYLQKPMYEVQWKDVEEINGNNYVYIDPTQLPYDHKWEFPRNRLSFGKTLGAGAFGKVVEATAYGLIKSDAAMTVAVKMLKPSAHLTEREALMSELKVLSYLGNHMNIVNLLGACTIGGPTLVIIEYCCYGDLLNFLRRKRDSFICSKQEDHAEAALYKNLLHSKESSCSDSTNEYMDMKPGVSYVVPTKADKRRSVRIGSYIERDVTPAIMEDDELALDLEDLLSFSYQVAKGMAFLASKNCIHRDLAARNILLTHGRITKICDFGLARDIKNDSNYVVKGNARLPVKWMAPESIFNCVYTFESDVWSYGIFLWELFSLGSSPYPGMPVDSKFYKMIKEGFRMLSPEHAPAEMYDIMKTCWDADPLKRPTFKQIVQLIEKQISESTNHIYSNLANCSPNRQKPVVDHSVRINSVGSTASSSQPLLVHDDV

[3] = target: T3, panel of 468 kinases (Homo sapiens, UniProt Q13705); conditions: ACVR2B; 1 μM; read-out: % control
T3 construct: purchased KINOMEscan (ScanMAX) service

[4] = target: T4, panel of 468 kinases (Homo sapiens, UniProt Q86V86); conditions: PIM3; 1 μM; read-out: % control
T4 construct: purchased KINOMEscan (ScanMAX) service

[5] = target: T5, panel of 468 kinases (Homo sapiens, UniProt Q15746); conditions: MYLK; 1 μM; read-out: % control
T5 construct: purchased KINOMEscan (ScanMAX) service

[6] = target: T6, panel of 468 kinases (Homo sapiens, UniProt P32298); conditions: GRK4; 1 μM; read-out: % control
T6 construct: purchased KINOMEscan (ScanMAX) service
T6 sequence (P32298 whole entry): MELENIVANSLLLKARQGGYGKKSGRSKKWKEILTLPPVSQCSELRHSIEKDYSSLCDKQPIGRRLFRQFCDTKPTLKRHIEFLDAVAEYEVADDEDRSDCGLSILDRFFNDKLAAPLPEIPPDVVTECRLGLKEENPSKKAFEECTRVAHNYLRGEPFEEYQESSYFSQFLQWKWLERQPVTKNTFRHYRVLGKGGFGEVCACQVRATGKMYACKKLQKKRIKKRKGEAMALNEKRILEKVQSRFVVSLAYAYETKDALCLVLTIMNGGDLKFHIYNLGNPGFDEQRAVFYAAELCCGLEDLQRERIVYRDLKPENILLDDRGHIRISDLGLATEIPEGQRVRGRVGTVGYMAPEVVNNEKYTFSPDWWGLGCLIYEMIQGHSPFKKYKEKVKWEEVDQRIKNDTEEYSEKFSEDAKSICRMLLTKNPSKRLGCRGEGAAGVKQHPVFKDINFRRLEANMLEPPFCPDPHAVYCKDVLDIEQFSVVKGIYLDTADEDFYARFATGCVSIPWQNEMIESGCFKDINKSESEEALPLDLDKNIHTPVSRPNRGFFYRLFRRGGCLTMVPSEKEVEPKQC

[7] = target: T7, panel of 468 kinases (Homo sapiens, UniProt P17948); conditions: FLT1; 1 μM; read-out: % control
T7 construct: purchased KINOMEscan (ScanMAX) service
T7 sequence (P17948 27-1338): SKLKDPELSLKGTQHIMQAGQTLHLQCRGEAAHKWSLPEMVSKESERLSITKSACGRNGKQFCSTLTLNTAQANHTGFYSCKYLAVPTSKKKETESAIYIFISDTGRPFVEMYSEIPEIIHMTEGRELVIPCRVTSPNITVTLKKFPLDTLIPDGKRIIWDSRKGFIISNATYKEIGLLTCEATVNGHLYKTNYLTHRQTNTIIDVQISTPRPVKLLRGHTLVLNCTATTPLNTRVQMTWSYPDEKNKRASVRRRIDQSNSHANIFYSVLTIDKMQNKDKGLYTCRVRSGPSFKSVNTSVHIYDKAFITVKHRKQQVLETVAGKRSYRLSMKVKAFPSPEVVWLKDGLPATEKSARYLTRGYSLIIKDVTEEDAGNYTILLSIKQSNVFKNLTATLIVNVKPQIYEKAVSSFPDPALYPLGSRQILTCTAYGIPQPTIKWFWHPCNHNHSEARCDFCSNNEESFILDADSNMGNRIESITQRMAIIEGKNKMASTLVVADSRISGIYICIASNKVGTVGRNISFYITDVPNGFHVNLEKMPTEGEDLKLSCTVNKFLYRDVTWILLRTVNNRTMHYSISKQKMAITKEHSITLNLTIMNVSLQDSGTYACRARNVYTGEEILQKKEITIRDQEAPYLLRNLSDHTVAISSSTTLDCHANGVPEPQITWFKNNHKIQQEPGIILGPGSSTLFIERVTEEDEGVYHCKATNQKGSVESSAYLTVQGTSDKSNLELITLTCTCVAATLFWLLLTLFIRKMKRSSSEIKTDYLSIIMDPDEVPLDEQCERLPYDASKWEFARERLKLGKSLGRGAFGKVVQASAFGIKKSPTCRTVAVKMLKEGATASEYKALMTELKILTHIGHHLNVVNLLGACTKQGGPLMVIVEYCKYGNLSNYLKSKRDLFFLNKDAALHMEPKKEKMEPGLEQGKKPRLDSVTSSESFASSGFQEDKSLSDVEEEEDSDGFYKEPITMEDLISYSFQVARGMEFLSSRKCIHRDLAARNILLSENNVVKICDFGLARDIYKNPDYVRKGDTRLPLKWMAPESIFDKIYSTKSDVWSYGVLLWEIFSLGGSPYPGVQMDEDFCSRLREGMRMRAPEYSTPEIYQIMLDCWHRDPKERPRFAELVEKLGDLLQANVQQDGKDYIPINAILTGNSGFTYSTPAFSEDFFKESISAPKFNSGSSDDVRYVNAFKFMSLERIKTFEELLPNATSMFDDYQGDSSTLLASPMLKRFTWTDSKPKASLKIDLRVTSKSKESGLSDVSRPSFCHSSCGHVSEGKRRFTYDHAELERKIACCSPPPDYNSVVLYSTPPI

[8] = target: T8, panel of 468 kinases (Homo sapiens, UniProt P36894); conditions: BMPR1A; 1 μM; read-out: % control
T8 construct: purchased KINOMEscan (ScanMAX) service

[9] = target: T9, panel of 468 kinases (Homo sapiens, UniProt O60331); conditions: PIP5K1C; 1 μM; read-out: % control
T9 construct: purchased KINOMEscan (ScanMAX) service
T9 sequence (O60331 whole entry): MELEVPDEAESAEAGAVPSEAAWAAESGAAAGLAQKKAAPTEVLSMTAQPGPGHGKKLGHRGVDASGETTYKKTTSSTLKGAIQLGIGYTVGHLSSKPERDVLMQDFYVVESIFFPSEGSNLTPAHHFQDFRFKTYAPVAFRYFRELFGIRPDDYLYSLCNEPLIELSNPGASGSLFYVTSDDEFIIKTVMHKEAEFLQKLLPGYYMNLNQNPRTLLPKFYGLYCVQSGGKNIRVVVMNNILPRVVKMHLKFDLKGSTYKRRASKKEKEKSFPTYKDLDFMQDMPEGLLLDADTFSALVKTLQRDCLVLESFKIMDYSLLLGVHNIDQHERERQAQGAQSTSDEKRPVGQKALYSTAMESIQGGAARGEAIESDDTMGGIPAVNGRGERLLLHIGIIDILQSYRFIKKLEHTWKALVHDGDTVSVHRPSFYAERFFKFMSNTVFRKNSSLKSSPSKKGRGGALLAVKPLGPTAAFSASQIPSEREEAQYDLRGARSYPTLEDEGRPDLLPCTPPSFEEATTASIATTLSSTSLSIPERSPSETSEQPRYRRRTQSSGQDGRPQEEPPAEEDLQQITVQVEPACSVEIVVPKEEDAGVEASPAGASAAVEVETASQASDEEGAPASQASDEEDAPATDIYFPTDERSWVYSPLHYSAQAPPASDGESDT

[10] = target: T10, panel of 468 kinases (Homo sapiens, UniProt Q13523); conditions: PRP4; 1 μM; read-out: % control
T10 construct: purchased KINOMEscan (ScanMAX) service
T10 sequence (Q13523 whole entry): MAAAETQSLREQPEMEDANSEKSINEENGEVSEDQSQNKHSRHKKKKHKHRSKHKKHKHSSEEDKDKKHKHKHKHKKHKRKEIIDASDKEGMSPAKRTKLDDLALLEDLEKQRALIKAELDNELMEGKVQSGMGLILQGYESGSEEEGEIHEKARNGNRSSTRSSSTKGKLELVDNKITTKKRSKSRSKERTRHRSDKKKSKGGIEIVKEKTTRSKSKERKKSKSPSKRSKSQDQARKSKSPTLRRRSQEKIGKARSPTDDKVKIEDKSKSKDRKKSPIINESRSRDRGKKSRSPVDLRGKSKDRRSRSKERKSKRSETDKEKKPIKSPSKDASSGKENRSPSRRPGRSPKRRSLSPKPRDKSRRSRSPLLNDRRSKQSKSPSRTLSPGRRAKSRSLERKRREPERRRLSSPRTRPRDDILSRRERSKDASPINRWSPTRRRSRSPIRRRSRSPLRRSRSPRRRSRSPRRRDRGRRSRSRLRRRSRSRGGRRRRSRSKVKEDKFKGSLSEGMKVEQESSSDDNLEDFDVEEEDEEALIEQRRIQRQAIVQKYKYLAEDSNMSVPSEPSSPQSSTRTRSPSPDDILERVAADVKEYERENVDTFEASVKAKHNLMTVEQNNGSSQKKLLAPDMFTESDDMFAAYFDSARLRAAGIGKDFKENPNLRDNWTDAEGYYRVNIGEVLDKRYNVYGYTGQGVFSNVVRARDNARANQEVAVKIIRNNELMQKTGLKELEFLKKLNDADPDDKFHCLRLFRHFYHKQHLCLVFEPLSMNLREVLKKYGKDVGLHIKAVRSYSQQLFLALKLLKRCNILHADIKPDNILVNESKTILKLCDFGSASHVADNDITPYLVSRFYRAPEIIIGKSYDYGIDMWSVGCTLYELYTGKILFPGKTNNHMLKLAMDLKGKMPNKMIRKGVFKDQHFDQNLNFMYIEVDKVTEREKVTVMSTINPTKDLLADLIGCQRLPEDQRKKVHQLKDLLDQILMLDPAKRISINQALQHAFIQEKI

[11] = target: T11, panel of 468 kinases (Homo sapiens, UniProt P08631); conditions: HCK; 1 μM; read-out: % control
T11 construct: purchased KINOMEscan (ScanMAX) service
T11 sequence (P08631 whole entry): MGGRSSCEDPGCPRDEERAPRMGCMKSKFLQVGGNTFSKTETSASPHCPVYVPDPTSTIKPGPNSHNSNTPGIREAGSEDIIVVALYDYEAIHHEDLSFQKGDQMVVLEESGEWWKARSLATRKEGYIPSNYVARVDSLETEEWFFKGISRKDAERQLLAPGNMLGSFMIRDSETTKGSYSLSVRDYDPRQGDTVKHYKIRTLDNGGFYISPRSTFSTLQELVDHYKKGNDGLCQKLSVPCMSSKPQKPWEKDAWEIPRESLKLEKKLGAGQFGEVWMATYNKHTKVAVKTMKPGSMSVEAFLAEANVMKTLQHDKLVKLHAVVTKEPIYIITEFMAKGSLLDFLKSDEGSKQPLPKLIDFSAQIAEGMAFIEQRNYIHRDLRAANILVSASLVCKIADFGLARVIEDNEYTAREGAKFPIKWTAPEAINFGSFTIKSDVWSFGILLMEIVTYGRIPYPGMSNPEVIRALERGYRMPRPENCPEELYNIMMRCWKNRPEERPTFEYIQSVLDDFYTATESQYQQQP

[12] = target: T12, panel of 468 kinases (Homo sapiens, UniProt Q13237); conditions: PRKG2; 1 μM; read-out: % control
T12 construct: purchased KINOMEscan (ScanMAX) service
T12 sequence (Q13237 1-762): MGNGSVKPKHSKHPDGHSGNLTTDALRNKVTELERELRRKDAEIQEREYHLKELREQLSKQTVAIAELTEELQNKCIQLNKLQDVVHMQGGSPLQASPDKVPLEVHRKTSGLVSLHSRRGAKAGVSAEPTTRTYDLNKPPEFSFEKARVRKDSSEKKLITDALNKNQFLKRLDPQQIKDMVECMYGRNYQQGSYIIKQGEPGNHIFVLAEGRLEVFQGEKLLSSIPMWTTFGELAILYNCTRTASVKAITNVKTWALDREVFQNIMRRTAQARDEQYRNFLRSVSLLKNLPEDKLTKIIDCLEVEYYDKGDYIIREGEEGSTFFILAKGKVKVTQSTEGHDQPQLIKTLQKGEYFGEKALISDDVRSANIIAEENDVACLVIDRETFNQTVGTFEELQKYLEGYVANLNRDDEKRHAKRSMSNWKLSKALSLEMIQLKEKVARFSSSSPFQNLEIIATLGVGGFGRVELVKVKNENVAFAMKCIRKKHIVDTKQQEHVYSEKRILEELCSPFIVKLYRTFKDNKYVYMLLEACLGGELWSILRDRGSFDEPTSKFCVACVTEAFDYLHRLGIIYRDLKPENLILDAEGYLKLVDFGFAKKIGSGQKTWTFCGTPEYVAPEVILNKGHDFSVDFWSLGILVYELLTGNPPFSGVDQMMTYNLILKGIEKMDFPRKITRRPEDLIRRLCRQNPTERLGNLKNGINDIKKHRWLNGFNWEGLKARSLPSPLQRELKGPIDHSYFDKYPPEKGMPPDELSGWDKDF

Row | SMILES | remaining binding at 1 µM [1] | remaining binding at 1 µM [2] | remaining binding at 1 µM [3] | remaining binding at 1 µM [4] | remaining binding at 1 µM [5] | remaining binding at 1 µM [6] | remaining binding at 1 µM [7] | remaining binding at 1 µM [8] | remaining binding at 1 µM [9] | remaining binding at 1 µM [10] | remaining binding at 1 µM [11] | remaining binding at 1 µM [12]
1 | CNc1nc(Nc2ccc(S(=O)(=O)N3CCC(N4CCOCC4)CC3)cc2OC)nc2[nH]cc(Cl)c12 [Compound 12, 5-chloro-N2-(2-methoxy-4-((4-morpholinopiperidin-1-yl)sulfonyl)phenyl)-N4-methyl-7H-pyrrolo[2,3-d]pyrimidine-2,4-diamine] | 81% | 89% | 79% | 100% | 8.8% | 100% | 100% | 96% | 57% | 100% | 98% | 100%
2 | CNc1nc(Nc2ccc(P3(=O)CCN(C4CCOCC4)CC3)cc2OC)nc2[nH]cc(Cl)c12 [Compound 77, 4-(4-((5-chloro-4-(methylamino)-7H-pyrrolo[2,3-d]pyrimidin-2-yl)amino)-3-methoxyphenyl)-1-(tetrahydro-2H-pyran-4-yl)-1,4-azaphosphinane 4-oxide] | 82% | 100% | 73% | 100% | 0.05% | 95% | 100% | 96% | 70% | 100% | 100% | 100%
3 | CNc1nc(Nc2ccc(C(=O)N3CCC(N4CCOCC4)CC3)c3c2OCO3)nc2[nH]cc(Cl)c12 [Compound 75, (7-((5-chloro-4-(methylamino)-7H-pyrrolo[2,3-d]pyrimidin-2-yl)amino)benzo[d][1,3]dioxol-4-yl)(4-morpholinopiperidin-1-yl)methanone] | 81% | 62% | 95% | 100% | 18% | 41% | 73% | 85% | 55% | 100% | 100% | 100%

Reference: US12479847B2 (DANA-FARBER CANCER INSTITUTE, INC., priority 2019, dated 2025)
